Counter-ions that a name gives are not always drawn.
Key:
[1] = tested on: S. feltiae; conditions: 20 μl VOC, checked after 24 hr, sealed Petri dish
Procedure: (§1) Authenticated M. brunneum VOCs, along with other selected VOCs, were screened for nematicidal activity against S. feltiae and H. bacteriophora. […] Each Petri dish (90 mm) contained 20 ml of the water agar medium. The inoculated plates were kept in darkness for 3 hr at room temperature to acclimatize. The plates were then exposed to 20 μl of the VOC dispensed from a 8 mm paper disc (Whatman™, 0.34 mm thickness) positioned on a 25×25 mm glass coverslip placed in the centre of the Petri dish lid (FIG. 1A). The plates were sealed with a double layer of Parafilm and were kept in the dark at 21° C. and checked after 24 hr. The number of live and dead nematodes were counted with the aid of a stereo binocular microscope (30×).
(§2) The deposition was predetermined using bacterial cultures highly sensitive to these VOCs. The edge of the circular zone of inhibition delineated the area of activity.
(§3) Mean of mortality was calculated from the total number of alive and dead individuals across all circles. There were five replicates per treatment and the whole experiment was repeated twice.

[2] = tested on: H. bacteriophora; conditions: 20 μl VOC, checked after 24 hr, sealed Petri dish
Procedure: as §1, §2, §3

[3] = tested on: root knot nematode M. hapla; conditions: for nematicidal activity against M. hapla: 5 μl and 10 μl
Procedure: (§4) Authenticated M. brunneum VOCs, along with other selected VOCs, were screened for nematicidal activity against S. feltiae and H. bacteriophora. 750 μl of nematode suspension containing approximately 5000 Us in tap water, was spread uniformly over the water agar surface (2.6% w/v agar, 5 mM potassium phosphate pH 6, 1 mM CaCl2 and 1 mM MgSO4) of a Petri dish. Each Petri dish (90 mm) contained 20 ml of the water agar medium. The inoculated plates were kept in darkness for 3 hr at room temperature to acclimatize. The plates were then exposed to 20 μl of the VOC dispensed from a 8 mm paper disc (Whatman™, 0.34 mm thickness) positioned on a 25×25 mm glass coverslip placed in the centre of the Petri dish lid (FIG. 1A). The plates were sealed with a double layer of Parafilm and were kept in the dark at 21° C. and checked after 24 hr. The number of live and dead nematodes were counted with the aid of a stereo binocular microscope (30×).
A study was conducted to determine the susceptibility of the root knot nematode M. hapla, a major crop pest, to 3-octanone and 1-octen-3-ol. Single egg-mass populations of M. hapla were kindly provided by Dr Ivan Grove (Harper Adams University/Crop and Environment Sciences). Four-week-old tomato plants (Solanum lycopersicum cv. Rutgers) were grown in a greenhouse. Soil in each pot was infested by pipetting egg masses of M. hapla suspended in tap water and cultivated at approximately 25±2° C. in a greenhouse. Six months following inoculation, tomato plants were uprooted and root systems were carefully washed with running tap water to remove adhered soil. The roots were cut into small pieces and extracted by the Baermann funnel method for 3-5 days to obtain live nematodes. The inoculum concentration included a range of life stages and was adjusted to approximately 2000 individuals using tap water by the aid of a haemocytometer. A mortality assay was carried out as described in Examples 1 and 2 above. The assay was carried out at two doses of the VOCs (5 μl and 10 μl) and the mortality was recorded at 3, 6 and 24 hr post treatment. There were three replicates per treatment and the whole experiment was repeated twice.

[4] = tested on: H. bacteriophora; test: Dose mortality assay for the EPNs (Example 2); format: in vivo, Heterorhabditis bacteriophora
Procedure: (§5) All statistical analyses were carried out using RStudio statistics package (RStudio, Inc. version 1.0.153), using “MASS” and “multcomp” packages. For all mortality data, differential sensitivity between EPN species and/or insect species and differential compound potency were determined using a generalised linear model (GLM) and Tukey's range test in post-hoc analysis. LD50 values were calculated using a GLM and the “dose.p” function within the “MASS” package. An ANOVA was carried out on the chemotactic responses of EPNs to VOCs, with the strength of response compared at each time and concentration. Welch's t-tests were used to compare means of mortality results in the final EPNs efficacy assay.
(§6) Dose mortality assays were performed using 3-octanone and 1-octen-3-ol. The assays were performed as described in Example 1, except that the EPNs (S. carpocapsae (Sc), S. feltiae (Sf) and H. bacteriophora (Hb)) were exposed to different doses of the VOCs (5, 10, 15 and 20 μl). The mortality was recorded as described previously at 3, 6, 12 and 24 hr post treatment. Controls included EPNs only (no VOC) and EPNs+1-octene. The results are shown in FIG. 2 (results 3 hr post treatment), 3 (results 6 hr post treatment), 4 (results 12 hr post treatment) & 5 (results 24 hr post treatment).

[5] = tested on: S. feltiae; test: Dose mortality assay for the EPNs (Example 2); format: in vivo, Steinernema feltiae
Procedure: as §5, §6

[6] = tested on: S. carpocapsae, S. feltiae and H. bacteriophora; test: Dose mortality assay, statement for all three EPNs; format: in vivo; conditions: for mortality: all three EPNs, after 24 hr
Procedure: as §4
as §6, with “EPNs+1-octene.” for “EPNs+1-octene. The results are shown in FIG. 2 (results 3 hr post treatment), 3 (results 6 hr post treatment), 4 (results 12 hr post treatment) & 5 (results 24 hr post treatment).”

[7] = tested on: S. carpocapsae; test: Dose mortality assay for the EPNs (Example 2); format: in vivo, Steinernema carpocapsae; conditions: for mortality: after 24 hr
Procedure: as §5, §6

Row | Compound | Mortality (%) (Mean ± SE) S. feltiae (Sf) [1] | Mortality (%) (Mean ± SE) H. bacteriophora (Hb) [2] | further results
1 | C=CC(O)CCCCC (centres unmarked) [1-octen-3-ol] | 100 | 91.6±2.1 | nematicidal activity against M. hapla [3]: strong nematicidal activity; mortality response ([3]; M. hapla, after 3 hr and 6 hr, 5 and 10 μl): dose dependent response; dead nematodes ([3]; M. hapla, after 24 hr, both doses (5 μl and 10 μl)): over 90%; LD50 ([4]; 6 hr): 21.72 µL; LD50 ([5]; 6 hr): 10.56 µL; mortality [6]: very high; LD50 ([7]; 24 hr): 41.01 µL
2 | C=CCCCCCC [1-octene, reference compound] | 20.1 ± 3 | 19.4 ± 3.8 | mortality ([5]; after 24 hr): ≤ 50%; mortalities ([6]; EPNs, over time (3-24 hr)): extremely low; mortality [7]: ≤ 50%
3 | CC(O)C(C)O (centres unmarked) [2,3-Butanediol] | 12.5 ± 7.2 | 11.4 ± 2.3 | –
4 | CCCCCC(=O)CC [3-octanone] | 100 | 100 | nematicidal activity against M. hapla [3]: strong nematicidal activity; mortality ([3]; in vivo): 100%; LD50 ([4]; 3 hr): 5.68 µL; mortality ([4]; time points later than 3 hr): exceeded 90%; mortality ([5]; at all time points (3, 6, 12, 24 hr)): > 99%; LD50 (μl) ([5]; no LD50 calculated): a (>99% mortality from 3 hr); mortality [6]: very high; LD50 ([7]; 12 hr): 94.88 µL; mortality ([7]; all doses (5-20 μl)): all nematodes were dead at all doses
5 | C=C(C)[C@H]1CC=C(C)CC1 [(R)-(+)-Limonene] | 16.7 ± 3.2 | 5.9 ± 1.9 | –
6 | CC(C)CCO [Isoamyl alcohol] | 20.8 ± 3 | 9.7 ± 2.1 | –
7 | CC(C)CCOC=O [Isoamyl formate] | 58 | 46.6±1.8 | –
8 | COC(=O)CC(C)C [Methyl isovalerate] | 38.1 ± 7 | 55 ± 2.6 | –
9 | CCCCCCCCCCCCC [Tridecane] | 32.3 ± 5 | 4.1 ± 1.6 | –
10 | CCCCCCCCCCC [Undecane] | 25.4 ± 5.6 | 7.5 ± 2.7 | –
11 | Farnesene | 43 ± 1.1 | 7.8 ± 3.1 | –

Source: patent publication US20210029995A1, “Use of Volatile Organic Compounds as Pesticides” (Certis Europe B.V., priority 2018, published 2021)
